{"source": "patent US12156922B2", "about": "“Copper-containing complex and uses thereof” (Bar-Ilan University, priority 2017, dated 2024)", "key": {"[1]": {"target": "T1, Ctr1 (Homo sapiens, UniProt O15431, DEL121-121)", "T1 construct": "intein (cleaved yes); made in house; host or cells: Escherichia coli BL21 (DE3)", "T1 sequence (O15431 with tags, fused parts or gaps DEL121-121)": "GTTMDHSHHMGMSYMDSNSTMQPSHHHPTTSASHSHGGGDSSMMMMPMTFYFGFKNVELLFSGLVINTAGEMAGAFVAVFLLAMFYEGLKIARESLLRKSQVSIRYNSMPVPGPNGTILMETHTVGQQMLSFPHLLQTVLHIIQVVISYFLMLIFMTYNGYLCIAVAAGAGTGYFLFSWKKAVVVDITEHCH", "assay": "EPR of Cu(II) coordination after exposure of complex to purified Ctr1", "type": "binding", "conditions": "120 K, 0.5 mM", "source_text": "Human Ctr1 (hCtr1) was obtained by expression and purification of a protein (SEQ ID NO: 43), using a pYTB12-hCTR1 plasmid, in which the full length hCTR1 sequence was cloned into the pYTB12 plasmid. This construct encodes for a fusion protein composed of hCTR1, intein, and a chitin-binding domain. The plasmid was transformed into the Escherichia coli strain BL21 (DE3).\nIn order to assess the behavior of a Cu(II)-ligand-peptide complex under physiological conditions, the coordination of Cu(II) was investigated by EPR spectroscopy following exposure of a Cu(II)-IDA-Met1 complex (prepared as described in Example 2) to the copper transporter Ctr1 (in a purified state), which plays a central role in the cellular copper cycle. For comparison, the behavior of Cu(II)-IDA (without a peptide) was also investigated under such conditions. EPR spectra were interpreted by comparison to simulated spectra prepared using the EasySpin™ computational package."}, "[2]": {"test_system": "DA3 breast cancer cells", "assay": "Cu(I) levels in cells by bicinchoninic acid (BCA) absorption at 562 nm", "type": "cell-based", "experimental": "The interaction between cells and Cu(II)-ligand-peptide complexes under various conditions was investigated by contacting DA3 breast cancer cells with a Cu(II)-IDA-Cys1 complex (prepared as described in Example 2) or with CuCl2 as a control. The concentration of reduced copper (Cu(I)) was then determined by complexation with bicinchoninic acid (BCA) and evaluating the concentration of BCA-Cu(I) by measuring absorption at a wavelength of 562 nm."}, "[3]": {"assay": "UV-visible spectrophotometry of Tyr-peptide binding to Cu(II), absorption at 276 nm", "experimental": "In order to compare affinity of peptides to Cu(II)-ligand-peptide complexes, UV-visible spectrophotometry was used to assess the degree of incorporation of Cys1-Tyr (SEQ ID NO: 51) and Met1-Tyr (SEQ ID NO: 50) peptides into Cu(II)-containing complexes, at various concentrations of Cu(II), IDA and peptide. The spectrophotometry focused on changes in Tyr residue absorption at about 276 nm. […]\nIn addition, 1 mM of peptide (16.6 μl) with 1 mM CuCl2 (12.5 μl) in ultrapure water (258.4 μl) was titrated with various concentrations (ranging from 0.25 to 1 mM or 0.25 to 1.25 mM) of IDA."}}, "data": [{"compound": "O=C([O-])CNCC(=O)[O-].[Cu+2]", "note": "[Cu(II)-IDA]", "values": [{"measurement": "coordination of Cu(II) in the presence of Ctr1", "setting": "[1]", "result": "becomes coordinated to the Ctr1"}]}, {"compound": "[Cl][Cu][Cl]", "note": "[free Cu(II) ions, CuCl2]", "values": [{"measurement": "time for which Cu(I) concentration in cells is maintained", "setting": "[2]; 1.5 mM", "result": "depleted from the cell within several hours"}, {"measurement": "Cu(I) ions in cells, hypoxic vs normoxic conditions", "setting": "[2]; 1.5 mM, 2, 6 or 24 hours after exposure", "result": "more Cu(I) ions are observed in cells under hypoxic conditions than under normoxic conditions"}, {"measurement": "entry of copper into cells in the presence of Ag(I) ions, a Ctr1 inhibitor", "setting": "[2]; 3 mM Ag(I) ions, 1.5 mM copper species", "result": "not blocked"}]}, {"compound": "KSMAACAM (Cys1 peptide sequence)", "values": [{"measurement": "affinity to Cu(II), comparison of peptides", "setting": "[3]; from Cys1-Tyr and Met1-Tyr titrations", "result": "considerably stronger affinity to Cu(II) than does Met1"}]}, {"compound": "MYGMKGMSY [Met1-Tyr]", "values": [{"measurement": "IDA-dependent change in absorption at 276 nm", "setting": "[3]; 1 mM peptide, 1 mM CuCl2, titrated with IDA", "result": "larger IDA-dependent change in absorption than did Cys1-Tyr"}]}]}
